According to US8088819B2, “Derivatives of substituted 3-phenyl-1-(phenylthienyl)propan-1-ones and of 3-phenyl-1-(phenylfuranyl) propan-1-ones, preparation and use” (priority 2006, dated 2012):

Key:
[1] = system: target genes of PPARδ in murine myocytes (C2C12); assay: Expression of target genes of PPARδ (PDK4, CPT1b, UCP2, UCP3) in murine myocytes, quantitative RT-PCR; assay type: cell-based; conditions: murine myocytes in vitro
From the text: It is established that regulation of the expression of these genes is directly controlled by PPARδ in this cell type. The more the expression of the genes is increased, the greater the stimulating action of the compound according to the invention on metabolism in the muscle cells.
Cells from the murine cell line C2C12 (obtained from ECACC) are cultivated in DMEM medium (Gibco; 41965-039) with addition of 1% L-glutamine (Gibco; 25030), 1% of penicillin/streptomycin (VWR; BWSTL0022/100) and 10% decomplemented fetal calf serum (FCS. Gibco; 10270-106).
The cells are seeded on 24-well plates at a density of 50·10^3 cells/well. At confluence, the medium is replaced with a differentiating medium (basal medium with addition of 2% of horse serum (Gibco; 26050-088)), then incubated at 37° C. and 5% CO2 for 4 days in order to differentiate them to myocytes.
After 5 days of differentiation, the cells are put in a deprivation medium (basal medium without serum) for 6 hours. The cells are then treated with the compounds according to the invention in the deprivation medium. Compounds 2, 4, 7, 11, 39, 40, 46, 49 and 72 were in dose effect, corresponding to 1×, 10× and 100× their EC50 PPARδ. The compounds according to the invention were dissolved in dimethylsulfoxide (DMSO, Sigma; D5879). The cells were treated for 24 h at 37° C., 5% CO2. The effect of the compounds according to the invention was compared with the effect of DMSO alone.
After treatment, the total RNA is extracted from the cells using the NucleoSpine® 96 RNA kit (Macherey Nagel, Hoerdt, France) following the manufacturer's instructions.
(§1) 1 μg of total RNA (quantified based on the UV spectrophotometer reading) was then reverse-transcribed to complementary DNA by reaction for 1 hour at 37° C. in a total volume of 30 μl containing buffer 1× (Invitrogen), 1.5 mM of DTT, 0.18 mM of dNTPs (Promega), 200 ng of pdN6 (Amersham), 30 U of RNase inhibitor (Promega) and 1 μl of MMLV-RT (Invitrogen).
(§2) The quantitative PCR experiments were carried out using the MyiQ Single-Color Real-Time PCR Detection System (Biorad, Marnes-la-Coquette, France) and were performed using the iQ SYBR Green Supermix kit following the supplier's recommendations, in 96-well plates, on 5 μl of diluted reverse-transcription reaction mixtures with a hybridization temperature of 60° C. Primer pairs specific to the PDK4, CPT1b, UCP2 and UCP3 genes under investigation were used:
The amount of fluorescence emitted is directly proportional to the amount of complementary DNA present at the start of the reaction and amplified during PCR. For each target investigated, a range is produced by successive dilutions of a pool constituted of a few microliters of various reverse-transcription reaction mixtures. The relative expression levels of each target are thus determined using the efficacy curves obtained with the points in the range.
The levels of expression of the genes of interest were then normalized relative to the level of expression of the reference gene 36B4 (whose specific primers are: sense primer: 5′-[…]-3′ (SEQ ID No. 19) and antisense primer: 5′-[…]-3′ (SEQ ID No. 20)). The induction factor, i.e. the ratio of the relative signal (induced by the compound according to the invention) to the mean of the relative values of the control group, was then calculated. The higher this factor, the greater the activating character of the compounds according to the invention with respect to gene expression. The final result is represented as the mean of the induction values in each experimental group.

[2] = system: ABCA1 gene in human macrophages (THP-1); assay: Reverse cholesterol transport: expression of the ABCA1 gene in human macrophages; assay type: cell-based; conditions: 24 h
Procedure: The effect of the compounds according to the invention on reverse cholesterol transport was evaluated by measuring the expression of the ABCA1 gene (ATP-binding cassette, sub-family A, member 1; membrane transporter involved in the efflux of cholesterol) in human macrophages. The more the expression of ABCA1 is increased, the greater the stimulating action of the compound according to the invention on reverse cholesterol transport.
The THP1 human monocyte line (obtained from ATCC) is cultivated in RPMI1640 medium with addition of 25 mM Hepes (Gibco; 42401-018), 1% glutamine (Gibco; 25030-24), 1% penicillin/streptomycin (Biochrom AG; A 2213) and 10% decomplemented fetal calf serum (FCS. Gibco; 26050-088).
The cells are seeded on 24-well plates (Primaria BD Falcon) at a density of 3·10^5 cells/well and incubated at 37° C. and 5% CO2 for 72 h in the presence of 30 ng/ml of phorbol 12-myristate 13-acetate (PMA) in order to differentiate them to macrophages. […]
as §1, with “the” for “the UV”
as §2, with “reverse transcription” for “reverse-transcription”, “Primer pairs specific to the PDK4, CPT1b, UCP2 and UCP3 genes under investigation were used:” left out
The amount of fluorescence emitted is directly proportional to the amount of complementary DNA present at the start of the reaction and amplified during PCR. […] The relative expression levels of each target are thus determined using the efficacy curves obtained with the points in the range. […]

`CC(C)(Oc1ccc(CCC(O)c2ccc(-c3ccc(C(F)(F)F)cc3)s2)c(Cl)c1Cl)C(=O)O` (stereo not shown) [Compound 4, 2-(2,3-dichloro-4-(3-hydroxy-3-(5-(4-(trifluoromethyl)phenyl)thien-2-yl)propyl)phenoxy)-2-methylpropanoic acid] was tested, and the “expression of genes involved in carbohydrate and lipid metabolism and in thermoregulation” value (from here on “expression of genes involved”) [1] was “stimulating effects” and the “expression of the gene coding for ABCA1 in human macrophages” value (“expression of the gene coding for ABCA1” for short) ([2]; at 1 μm) was “significant increase”.

In the case of `CC(C)(Oc1ccc(CCC(=O)c2cc(-c3ccc(C(F)(F)F)cc3)cs2)c(Cl)c1Cl)C(=O)O` [Compound 11, 2-(2,3-dichloro-4-(3-oxo-3-(4-(4-(trifluoromethyl)phenyl)thien-2-yl)propyl)phenoxy)-2-methylpropanoic acid], the “expression of genes involved” value [1] is reported as “stimulating effects”.

With `CC(C)(Oc1ccc(CCC(=O)c2ccc(-c3ccc(C(F)(F)F)cc3)s2)c(Cl)c1Cl)C(=O)O` [Compound 2, 2-(2,3-dichloro-4-(3-oxo-3-(5-(4-(trifluoromethyl)phenyl)thien-2-yl)propyl)phenoxy)-2-methylpropanoic acid] the “expression of genes involved” value [1] was “stimulating effects” and the “expression of the gene coding for ABCA1” value ([2]; at 1 μm) was “significant increase”.

For `CC(C)(Oc1ccc(CCC(OCc2ccccc2)c2ccc(-c3ccc(C(F)(F)F)cc3)s2)c(Cl)c1Cl)C(=O)O` (stereo not shown) [Compound 7, 2-(4-(3-(benzyloxy)-3-(5-(4-(trifluoromethyl)phenyl)thien-2-yl)propyl)-2,3-dichlorophenoxy)-2-methylpropanoic acid], the “expression of genes involved” value [1] was “stimulating effects” and the “expression of the gene coding for ABCA1” value ([2]; at 300 nM) was “significant increase”.
